In patent publication US20040102622A1, “Modulation of hepatocyte growth factor receptor expression” (Isis Pharmaceuticals Inc., priority 2002, published 2004):
Strand notation (5' to 3'): a small letter for the sugar, then the base; units joined by * are phosphorothioate-linked, units joined directly phosphodiester-linked; [ ] holds rarer units or linkages, { } end groups; capitals alone tell only the bases. e = 2'-O-(2-methoxyethyl) (MOE); [5mC] = 5-methylcytosine; d = 2'-deoxy (DNA)

These substances were tested on human hepatocyte growth factor receptor mRNA (assay: not given). Conditions: not given.
Wherever % INHIB (inhibition of human hepatocyte growth factor receptor mRNA levels) is given: test concentration or dose not given here.

**Q.** For “ISIS 155097: 2′-MOE gapmer, phosphorothioate backbone, sequence cctcggtcagaaattgggaa (antisense CCTCGGTCAGAAATTGGGAA; all phosphorothioate, sugars by position and methylation of C not given here; 2'-MOE gapmer)”, which “inhibition of human hepatocyte growth factor receptor expression” value is on record?
**A.** at least 35%

**Q.** For “ISIS 155098: 2′-MOE gapmer, phosphorothioate backbone, sequence tcagaagtgtcctattaaag (antisense TCAGAAGTGTCCTATTAAAG; all phosphorothioate, sugars by position and methylation of C not given here; 2'-MOE gapmer)”, which “inhibition of human hepatocyte growth factor receptor expression” value is on record?
**A.** at least 35%

**Q.** How did the “inhibition of human hepatocyte growth factor receptor expression” value turn out when “ISIS 155099: 2′-MOE gapmer, phosphorothioate backbone, sequence caggtttttcccaacacctg (antisense CAGGTTTTTCCCAACACCTG; all phosphorothioate, sugars by position and methylation of C not given here; 2'-MOE gapmer)” was run?
**A.** at least 35%

**Q.** “ISIS 155101: 2′-MOE gapmer, phosphorothioate backbone, sequence ttcagccacaggaaaaaccc (antisense TTCAGCCACAGGAAAAACCC; all phosphorothioate, sugars by position and methylation of C not given here; 2'-MOE gapmer)” was tested. Which “inhibition of human hepatocyte growth factor receptor expression” value did it give?
**A.** at least 35%

**Q.** “ISIS 155102: 2′-MOE gapmer, phosphorothioate backbone, sequence gagaggcattgactgcagga (antisense GAGAGGCATTGACTGCAGGA; all phosphorothioate, sugars by position and methylation of C not given here; 2'-MOE gapmer)” was tested. Which “inhibition of human hepatocyte growth factor receptor expression” value did it give?
**A.** at least 35%

**Q.** With “ISIS 155103: 2′-MOE gapmer, phosphorothioate backbone, sequence tgggaagctgatacttcata (antisense TGGGAAGCTGATACTTCATA; all phosphorothioate, sugars by position and methylation of C not given here; 2'-MOE gapmer)” as the substance, how does the “inhibition of human hepatocyte growth factor receptor expression” value read?
**A.** at least 35%

**Q.** Which “inhibition of human hepatocyte growth factor receptor expression” value does the source give for “ISIS 155104: 2′-MOE gapmer, phosphorothioate backbone, sequence atgcaatggatgatctggga (antisense ATGCAATGGATGATCTGGGA; all phosphorothioate, sugars by position and methylation of C not given here; 2'-MOE gapmer)” here?
**A.** at least 35%

**Q.** Which “inhibition of human hepatocyte growth factor receptor expression” value does the source give for “ISIS 155105: 2′-MOE gapmer, phosphorothioate backbone, sequence atcaaagtatttggaaagga (antisense ATCAAAGTATTTGGAAAGGA; all phosphorothioate, sugars by position and methylation of C not given here; 2'-MOE gapmer)” here?
**A.** at least 35%

**Q.** For “ISIS 155106: 2′-MOE gapmer, phosphorothioate backbone, sequence cacaacctgcatgaagcgac (antisense CACAACCTGCATGAAGCGAC; all phosphorothioate, sugars by position and methylation of C not given here; 2'-MOE gapmer)”, which “inhibition of human hepatocyte growth factor receptor expression” value is on record?
**A.** at least 35%

**Q.** For “ISIS 155107: 2′-MOE gapmer, phosphorothioate backbone, sequence tccgcggtgaagttgggaag (antisense TCCGCGGTGAAGTTGGGAAG; all phosphorothioate, sugars by position and methylation of C not given here; 2'-MOE gapmer)”, which “inhibition of human hepatocyte growth factor receptor expression” value is on record?
**A.** at least 35%

Each substance was assayed on human hepatocyte growth factor receptor mRNA (assay: Inhibition of human hepatocyte growth factor receptor mRNA levels in T-24 cells, quantitative real-time PCR). Conditions: averages from three experiments.

**Q.** For “209529 (antisense e[5mC]*e[5mC]*e[5mC]*eA*eG*d[5mC]*d[5mC]*dA*d[5mC]*dA*dT*dA*dT*dG*dG*eT*e[5mC]*eA*eG*e[5mC]) [compound 209529]”, which “% INHIB (inhibition of human hepatocyte growth factor receptor mRNA levels)” value (“% INHIB” for short) is on record?
**A.** 87%

**Q.** For “209530 (antisense eT*eT*eA*e[5mC]*eA*dG*dG*dA*dT*d[5mC]*d[5mC]*dA*d[5mC]*dA*dT*eA*eG*eG*eA*eG) [compound 209530]”, which “% INHIB” value is on record?
**A.** 81%

**Q.** For “209531 (antisense eT*eA*eA*eG*eT*d[5mC]*dA*dA*dT*dT*dT*dT*d[5mC]*dA*dA*eT*eT*eT*eA*eA) [compound 209531]”, which “% INHIB” value is on record?
**A.** 13%

**Q.** “209532 (antisense eA*eG*eT*eA*e[5mC]*dT*dA*dA*dT*dA*dA*dA*dA*dG*dA*eT*eT*eT*eG*eG) [compound 209532]” was tested. Which “% INHIB” value did it give?
**A.** 0%

**Q.** Which “% INHIB” value does the source give for “209533 (antisense e[5mC]*eA*e[5mC]*e[5mC]*eA*d[5mC]*dT*dG*dG*d[5mC]*dA*dA*dA*dG*d[5mC]*eA*eA*eA*eA*eT) [compound 209533]” here?
**A.** 47%

**Q.** “209534 (antisense eA*eG*e[5mC]*eA*eT*dT*dA*d[5mC]*dT*dT*d[5mC]*dA*dT*dA*dT*eA*eA*eG*eG*eG) [compound 209534]” was tested. Which “% INHIB” value did it give?
**A.** 35%

**Q.** For “209535 (antisense eA*eT*eA*eA*e[5mC]*dA*dA*dT*dA*d[5mC]*dA*dA*dG*dT*d[5mC]*e[5mC]*eT*eA*eT*eG) [compound 209535]”, which “% INHIB” value is on record?
**A.** 39%

**Q.** “209536 (antisense e[5mC]*e[5mC]*eT*e[5mC]*e[5mC]*d[5mC]*dA*dT*dA*d[5mC]*dT*dA*dG*dA*dG*eA*eA*eG*eT*eA) [compound 209536]” was tested. Which “% INHIB” value did it give?
**A.** 36%

**Q.** How did the “% INHIB” value turn out when “209537 (antisense eA*eG*eA*eG*eG*dT*dT*dT*dA*dT*d[5mC]*dT*dG*d[5mC]*d[5mC]*eA*eA*eA*eA*e[5mC]) [compound 209537]” was run?
**A.** 43%

**Q.** With “209538 (antisense eT*eG*eT*eG*eA*d[5mC]*dT*dT*dA*d[5mC]*d[5mC]*d[5mC]*dT*dA*dT*eT*eA*eA*eA*eG) [compound 209538]” as the substance, how does the “% INHIB” value read?
**A.** 28%

**Q.** With “209539 (antisense eG*e[5mC]*eT*eT*e[5mC]*d[5mC]*d[5mC]*d[5mC]*dA*dT*dT*dG*d[5mC]*dT*dG*eT*eT*eA*eG*eG) [compound 209539]” as the substance, how does the “% INHIB” value read?
**A.** 57%

**Q.** With “209540 (antisense e[5mC]*eA*e[5mC]*eA*eT*d[5mC]*d[5mC]*d[5mC]*dT*dT*dG*dT*dA*dA*dG*eT*eT*eG*eG*eA) [compound 209540]” as the substance, how does the “% INHIB” value read?
**A.** 52%

**Q.** For “209541 (antisense eA*e[5mC]*e[5mC]*eA*eA*dG*dT*dA*d[5mC]*dT*dG*dT*dA*dA*dG*eA*eG*eA*eG*eG) [compound 209541]”, which “% INHIB” value is on record?
**A.** 40%

**Q.** “209542 (antisense e[5mC]*eT*eT*eG*e[5mC]*dT*dT*d[5mC]*d[5mC]*dA*d[5mC]*dT*dA*dA*dA*eA*eA*eT*eG*eA) [compound 209542]” was tested. Which “% INHIB” value did it give?
**A.** 74%

**Q.** How did the “% INHIB” value turn out when “209543 (antisense eG*eA*eT*eG*e[5mC]*d[5mC]*dA*d[5mC]*d[5mC]*dG*dT*dG*d[5mC]*dA*d[5mC]*eT*eG*eT*eG*e[5mC]) [compound 209543]” was run?
**A.** 85%

**Q.** “209544 (antisense eT*eA*eA*eT*eA*dG*dT*dG*d[5mC]*dA*dA*dT*dT*dT*dT*eG*eG*e[5mC]*eA*eA) [compound 209544]” was tested. Which “% INHIB” value did it give?
**A.** 82%

**Q.** How did the “% INHIB” value turn out when “209545 (antisense eA*eA*eT*eA*e[5mC]*dA*dA*dG*dT*d[5mC]*d[5mC]*dT*dA*dT*dA*eA*eT*eA*eG*eT) [compound 209545]” was run?
**A.** 10%

**Q.** How did the “% INHIB” value turn out when “209546 (antisense eA*eA*eT*eT*e[5mC]*dA*dA*dG*dT*dT*dT*dT*dG*dG*dA*e[5mC]*eT*e[5mC]*e[5mC]*eA) [compound 209546]” was run?
**A.** 76%

**Q.** “209547 (antisense eT*e[5mC]*e[5mC]*eT*eG*d[5mC]*dT*dT*d[5mC]*dA*dA*dT*dT*dT*d[5mC]*e[5mC]*e[5mC]*eA*eT*eA) [compound 209547]” was tested. Which “% INHIB” value did it give?
**A.** 84%

**Q.** For “209548 (antisense eT*e[5mC]*eA*eA*eG*dA*dA*dG*d[5mC]*d[5mC]*d[5mC]*dT*d[5mC]*dA*dA*eT*eA*eT*eT*eT) [compound 209548]”, which “% INHIB” value is on record?
**A.** 67%

**Q.** “209549 (antisense e[5mC]*e[5mC]*eT*eG*eA*dG*d[5mC]*dA*dT*dT*dA*d[5mC]*dT*dA*dT*e[5mC]*eT*e[5mC]*eT*eT) [compound 209549]” was tested. Which “% INHIB” value did it give?
**A.** 84%

**Q.** “209550 (antisense eT*eG*e[5mC]*eG*e[5mC]*dG*d[5mC]*dT*dG*dT*dA*dG*dT*d[5mC]*d[5mC]*e[5mC]*eA*eG*e[5mC]*eT) [compound 209550]” was tested. Which “% INHIB” value did it give?
**A.** 84%

**Q.** “209551 (antisense e[5mC]*eT*eT*eG*eG*dG*dA*dG*dG*d[5mC]*dG*dA*dG*dT*dG*eT*e[5mC]*eA*e[5mC]*e[5mC]) [compound 209551]” was tested. Which “% INHIB” value did it give?
**A.** 0%

**Q.** With “209552 (antisense eT*eG*eA*eA*eA*d[5mC]*dT*dT*dT*d[5mC]*dT*dA*dG*dG*dT*eG*eG*eA*eG*eA) [compound 209552]” as the substance, how does the “% INHIB” value read?
**A.** 0%

**Q.** Which “% INHIB” value does the source give for “209553 (antisense e[5mC]*eG*e[5mC]*e[5mC]*e[5mC]*dA*d[5mC]*dG*dA*d[5mC]*dA*dA*dG*dG*dT*eG*eA*eA*eA*e[5mC]) [compound 209553]” here?
**A.** 0%

**Q.** For “209554 (antisense eA*eG*eA*eG*eG*dG*dA*dA*dA*dT*d[5mC]*dG*dG*d[5mC]*d[5mC]*e[5mC]*e[5mC]*e[5mC]*eG*e[5mC]) [compound 209554]”, which “% INHIB” value is on record?
**A.** 0%

**Q.** How did the “% INHIB” value turn out when “209555 (antisense eG*e[5mC]*eG*e[5mC]*eG*d[5mC]*dT*dG*d[5mC]*d[5mC]*d[5mC]*dT*dG*d[5mC]*d[5mC]*eA*eG*eT*eG*eA) [compound 209555]” was run?
**A.** 0%
